Measured values from patent US8722580B2, “Agent for inhibiting cytokinin signaling” (Sumitomo Chemical Company, Limited, priority 2006, dated 2014).

Key:
Arabidopsis thaliana = assay: Root growth-promoting activity test (Example 9); assay type: in vivo; settings: main root length vs control section, 22° C., 10 days
Method: Enshi standard medium having the following composition (see Table 10) was prepared. To cluster tubes was dispensed each 4 μl of a solution of a chemical substance in DMSO to a final concentration of 0.001 ppm to 10 ppm, and then, was dispensed each 600 μl of the sterilized Enshi standard medium. Then the resulting solution was well mixed. In each of the cluster tubes, 10-20 seeds of Arabidopsis thaliana were sown, and cultured at 22° C. for 10 days in the light. Then, the length of main roots (average main roots) generated from the seeds of Arabidopsis thaliana was measured. An average of eight repeats was determined, and a root growth rate was determined according to the following equation.
Root growth rate (%)=(Average main root length in chemical substance-treated section)/(Average main root length in control section)×100

[1] = test system: transformed cell TM182-p415CYC1; assay: Control growth test with transformed yeast cell TM182-p415CYC1 (toxicity to yeast); assay type: cell-based; settings: trans-zeatin 0.6 ppm; chemical substance 2 ppm; 30° C., 24 hours; turbidity OD 600
Method: (§1) The transformed cell TM182-CRE1 and the transformed cell TM182-p415CYC1 obtained in Example 6 were each inoculated in 10 ml of a DOLU+Gal medium, and preincubated at 30° C. for 18 hours to obtain a preincubation liquid for each of the transformed cells. The preincubation liquid was diluted with a DOLU+Glu medium for the transformed cell TM182-CRE1 or with a DOLU+Gal medium for the transformed cell TM182-p415CYC1 until OD600=0.1 was reached, to obtain a preincubation dilution for each of the transformed cells.
(§2) To each well of a 96-well plate was added 1 μl of a 200 ppm solution of a test substance in dimethyl sulfoxide (DMSO) to prepare an Assay plate. At the same time, as controls, only 1 μl of DMSO was added to a part of wells. An assay plate for the transformed cell TM182-CRE1 and an assay plate for the transformed cell TM182-p415CYC1 were prepared.
(§3) A 10,000 ppm solution of trans-zeatin (cytokinin) in DMSO was 50-fold diluted with a DOLU+Gul medium to 200 ppm. The 200 ppm trans-zeatin solution was added in an amount of 3/1,000 volume to each of the above-described preincubation dilution to prepare each preincubation dilution containing trans-zeatin at 0.6 ppm. The 0.6 ppm preincubation dilution was added in an amount of 100 μl to each wells of the assay plate for each transformed cell. The plates were incubated at 30° C. for 24 hours. Then, turbidity (OD 600) of each well was measured by using a plate reader. The activity of the test substance for inhibiting intracellular signaling from a plant-derived cytokinin receptor of a cell was tested by comparing the measured turbidity with the turbidity of the control well.
(§4) (Relative growth rate in test section to control section) [%]=[(Turbidity in test section)−(Turbidity in blank)]/[(Turbidity in control section)−(Turbidity in blank)]×100 (Activity of inhibiting intracellular signaling from plant-derived cytokinin receptor of cell) [%]=100−(Relative growth rate in test section to control section)
(§5) In all cases, the existing concentration of trans-zeatin was adjusted to 0.6 ppm and the existing concentration of a chemical substance was adjusted to 2 ppm.
(§6) In all cases, the existing concentration of trans-zeatin was adjusted to 0.6 ppm and the existing concentration of a chemical substance was adjusted to 2 […].

cytokinin receptor CRE1 = biological target: T1, cytokinin receptor CRE1 (Arabidopsis thaliana, UniProt Q9C5U0, S567G/T1018A); assay: Inhibition of intracellular signaling from plant-derived cytokinin receptor, growth of transformed yeast cell TM182-CRE1; assay type: cell-based; settings: trans-zeatin 0.6 ppm, chemical substance 2 ppm; for Relative growth rate (%) in test section of test substance to control section, Transformed cell TM182-CRE1: 30° C., 24 hours, turbidity OD 600; for Activity (%) of test substance for inhibiting intracellular signaling from plant-derived cytokinin receptor of cell: = 100 − relative growth rate of TM182-CRE1
T1 construct: expressed in transfected cells; host or cells: Saccharomyces cerevisiae TM182 (sln1Δ) transformed with p415CYC-CRE1
Method: as §1, §2, §3, §4, §5, §6

[2] = test final concentration 10 ppm (concentration with highest root growth rate)
[3] = test final concentration 0.625 ppm (concentration with highest root growth rate)

T1 sequence (Q9C5U0 24-1080 S567G/T1018A): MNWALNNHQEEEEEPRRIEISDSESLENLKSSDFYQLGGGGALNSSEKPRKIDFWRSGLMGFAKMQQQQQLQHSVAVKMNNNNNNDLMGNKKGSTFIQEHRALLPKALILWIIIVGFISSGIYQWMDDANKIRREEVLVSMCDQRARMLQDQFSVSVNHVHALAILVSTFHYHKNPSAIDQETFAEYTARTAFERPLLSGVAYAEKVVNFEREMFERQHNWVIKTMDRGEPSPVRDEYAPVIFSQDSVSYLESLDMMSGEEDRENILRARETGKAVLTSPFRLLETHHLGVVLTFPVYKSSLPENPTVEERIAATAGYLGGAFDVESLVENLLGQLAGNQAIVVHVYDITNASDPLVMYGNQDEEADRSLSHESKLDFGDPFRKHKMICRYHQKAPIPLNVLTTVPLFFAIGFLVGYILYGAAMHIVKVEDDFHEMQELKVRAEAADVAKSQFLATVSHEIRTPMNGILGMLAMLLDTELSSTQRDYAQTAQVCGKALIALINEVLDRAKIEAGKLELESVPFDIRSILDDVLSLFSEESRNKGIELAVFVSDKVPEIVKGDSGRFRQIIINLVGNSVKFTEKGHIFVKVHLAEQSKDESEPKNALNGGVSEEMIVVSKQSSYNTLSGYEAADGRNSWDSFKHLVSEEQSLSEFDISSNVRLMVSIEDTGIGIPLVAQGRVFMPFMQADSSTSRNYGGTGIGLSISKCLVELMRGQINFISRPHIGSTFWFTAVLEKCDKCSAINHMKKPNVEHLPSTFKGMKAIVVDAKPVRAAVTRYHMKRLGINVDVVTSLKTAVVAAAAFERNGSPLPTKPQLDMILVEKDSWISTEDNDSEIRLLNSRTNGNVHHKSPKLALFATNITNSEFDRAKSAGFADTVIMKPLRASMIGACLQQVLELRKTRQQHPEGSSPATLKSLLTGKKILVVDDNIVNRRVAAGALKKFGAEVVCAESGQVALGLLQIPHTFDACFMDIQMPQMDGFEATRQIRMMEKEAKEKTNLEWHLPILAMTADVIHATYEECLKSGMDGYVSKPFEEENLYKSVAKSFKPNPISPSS

## COc1ccc2nc(NCCCO)nc(-c3ccccc3)c2c1 [Ic8-1]
Arabidopsis thaliana; [2]
  Root growth-promoting activity (root growth rate): 162.1%

## N#CCCNc1nc(-c2ccccc2)c2cc(Cl)ccc2n1 [Ic3-34]
[1]
  Relative growth rate (%) in test section of test substance to control section, Transformed cell TM182-p415CYC1: 118.5%
Cytokinin receptor CRE1
  Relative growth rate (%) in test section of test substance to control section, Transformed cell TM182-CRE1: 0.2%
  Activity (%) of test substance for inhibiting intracellular signaling from plant-derived cytokinin receptor of cell: 99.8%

## NCCOc1nc(-c2ccccc2)c2cc(Cl)ccc2n1 [Id3-1, 2-(2-aminoethoxy)-6-chloro-4-phenylquinazotine]
[1]
  Relative growth rate (%) in test section of test substance to control section, Transformed cell TM182-p415CYC1: 112.5%
Cytokinin receptor CRE1
  Relative growth rate (%) in test section of test substance to control section, Transformed cell TM182-CRE1: 2.1%
  Activity (%) of test substance for inhibiting intracellular signaling from plant-derived cytokinin receptor of cell: 97.9%

## Clc1nc(-c2ccccc2)c2c(Cl)cccc2n1 [Ia1-1]
Arabidopsis thaliana; test final concentration 5 ppm (concentration with highest root growth rate)
  Root growth-promoting activity (root growth rate): 133.3%

## CN(CCO)c1nc(-c2ccccc2)c2cc(Cl)ccc2n1 [Ic3-6]
[1]
  Relative growth rate (%) in test section of test substance to control section, Transformed cell TM182-p415CYC1: 114.6%
Cytokinin receptor CRE1
  Relative growth rate (%) in test section of test substance to control section, Transformed cell TM182-CRE1: 2.8%
  Activity (%) of test substance for inhibiting intracellular signaling from plant-derived cytokinin receptor of cell: 97.2%
Arabidopsis thaliana; [3]
  Root growth-promoting activity (root growth rate): 122.4%

## Clc1cccc(-c2nc(Cl)nc3ccc(Cl)cc23)c1 [Ia1-14]
Arabidopsis thaliana; test final concentration 0.156 ppm (concentration with highest root growth rate)
  Root growth-promoting activity (root growth rate): 129.3%

## O=Cc1nc(-c2ccccc2Cl)c2cc(Br)ccc2n1 [Ib4-1]
[1]
  Relative growth rate (%) in test section of test substance to control section, Transformed cell TM182-p415CYC1: 110.9%
Cytokinin receptor CRE1
  Relative growth rate (%) in test section of test substance to control section, Transformed cell TM182-CRE1: 8.7%
  Activity (%) of test substance for inhibiting intracellular signaling from plant-derived cytokinin receptor of cell: 91.3%

## OCCNc1nc(-c2ccccc2)c2cc(Br)ccc2n1 [Ic4-1]
[1]
  Relative growth rate (%) in test section of test substance to control section, Transformed cell TM182-p415CYC1: 95.0%
Cytokinin receptor CRE1
  Relative growth rate (%) in test section of test substance to control section, Transformed cell TM182-CRE1: 4.6%
  Activity (%) of test substance for inhibiting intracellular signaling from plant-derived cytokinin receptor of cell: 95.4%

## O=[N+]([O-])c1ccc2nc(Cl)nc(-c3ccccc3)c2c1 [Ia1-7]
[1]
  Relative growth rate (%) in test section of test substance to control section, Transformed cell TM182-p415CYC1: 78.8%
Cytokinin receptor CRE1
  Relative growth rate (%) in test section of test substance to control section, Transformed cell TM182-CRE1: 1.2%
  Activity (%) of test substance for inhibiting intracellular signaling from plant-derived cytokinin receptor of cell: 98.8%

## NC(=O)CNc1nc(-c2ccccc2)c2cc(Cl)ccc2n1 [Ic3-31]
Arabidopsis thaliana; [2]
  Root growth-promoting activity (root growth rate): 142.2%

## Fc1ccc2nc(Cl)nc(-c3ccccc3)c2c1 [Ia1-2]
Arabidopsis thaliana; [2]
  Root growth-promoting activity (root growth rate): 139.7%

## COCCN(C)c1nc(-c2ccccc2)c2cc(Cl)ccc2n1 [Ic3-9]
[1]
  Relative growth rate (%) in test section of test substance to control section, Transformed cell TM182-p415CYC1: 122.0%
Cytokinin receptor CRE1
  Relative growth rate (%) in test section of test substance to control section, Transformed cell TM182-CRE1: 1.5%
  Activity (%) of test substance for inhibiting intracellular signaling from plant-derived cytokinin receptor of cell: 98.5%

## CCOCCNc1nc(-c2ccccc2)c2cc(Cl)ccc2n1 [Ic3-45]
[1]
  Relative growth rate (%) in test section of test substance to control section, Transformed cell TM182-p415CYC1: 98.7%
Cytokinin receptor CRE1
  Relative growth rate (%) in test section of test substance to control section, Transformed cell TM182-CRE1: 0.8%
  Activity (%) of test substance for inhibiting intracellular signaling from plant-derived cytokinin receptor of cell: 99.2%

## OCCCNc1nc(-c2ccccc2)c2cc(Br)ccc2n1 [Ic4-2]
[1]
  Relative growth rate (%) in test section of test substance to control section, Transformed cell TM182-p415CYC1: 109.3%
Cytokinin receptor CRE1
  Relative growth rate (%) in test section of test substance to control section, Transformed cell TM182-CRE1: 0.9%
  Activity (%) of test substance for inhibiting intracellular signaling from plant-derived cytokinin receptor of cell: 99.1%

## FC(F)(F)c1ccc2nc(Cl)nc(-c3ccccc3)c2c1 [Ia1-6]
Arabidopsis thaliana; [3]
  Root growth-promoting activity (root growth rate): 126.9%

## C#CCNc1nc(-c2ccccc2)c2cc(Cl)ccc2n1 [Ic3-30]
[1]
  Relative growth rate (%) in test section of test substance to control section, Transformed cell TM182-p415CYC1: 108.9%
Cytokinin receptor CRE1
  Relative growth rate (%) in test section of test substance to control section, Transformed cell TM182-CRE1: 2.2%
  Activity (%) of test substance for inhibiting intracellular signaling from plant-derived cytokinin receptor of cell: 97.8%

## N=C(N)Nc1nc(-c2ccccc2)c2cc(Cl)ccc2n1 [Ic3-36]
Arabidopsis thaliana; test final concentration 2.5 ppm (concentration with highest root growth rate)
  Root growth-promoting activity (root growth rate): 123.1%

## NCCSc1nc(-c2ccccc2)c2cc(Cl)ccc2n1 [Ie3-2]
Arabidopsis thaliana; [2]
  Root growth-promoting activity (root growth rate): 147.6%
